# Data as given in a melting point compilation (Tetko et al.).
row,melting point [°C],Structure (SMILES)
1,220,Cc1nc(C2CCN(C(=O)OC(C)(C)C)CC2)sc1C=O
2,201,COc1ccc(-c2cc3nc(-c4cccs4)cc(C(F)(F)F)n3n2)cc1
3,86,Cc1cccc2c1C(=O)OC2
4,80,Cc1ccc(C(c2ccc(C)o2)c2ccccc2[N+](=O)[O-])o1
5,-26.5,CCCCCCCCC=CCCCCCCCC(=O)OCCCC
6,170 to 180,Nc1cccc(C(=O)O)c1C(=O)O
7,283 to 284,O=C1C(=CC2C(=O)N(c3ccccc3)N=C2c2ccc([N+](=O)[O-])cc2)C(c2ccc([N+](=O)[O-])cc2)=NN1c1ccccc1 (stereo not given)
8,102 to 106,COc1ccc2c(c1)CC1(CCC(O)(c3ccc(C(C)(C)C)cc3)CC1)C2O (stereo not given)
9,21.5,Cc1c(Cl)cccc1C#N
10,247 to 248,Cn1cncc1C(=O)O
11,70,CC(O)(c1ccc(Cl)cc1)c1ccc(Cl)cc1
12,130,COc1cccc2oc(-c3ccccc3)cc(=O)c12
13,300 to 302,O=C1[C@H]2CC3=C(CC=CC3)C[C@H]2C(=O)[C@H]2CC3=C(CC=CC3)C[C@@H]12
14,194,CC(C)(C)N(NC(=O)c1ccccc1)C(=O)c1c(F)cccc1F
15,147 to 148,Cc1c(C(=O)Cl)cnn1-c1ccccc1
16,190 to 194,O=c1[nH]nc(S)n1C1CCCCC1
17,175,O=c1on(-c2ccccc2)cc1-c1ccccc1
18,157,O=C(c1ccccc1)c1ccc(-c2ccc(Br)cc2)cc1
19,94 to 95,COc1ccc(C#N)cn1
20,-50,CCOC(=O)C(C)=O
21,110 to 111,Cc1ccc(-c2ccc(C=CC(=O)c3ccco3)o2)cc1
22,2,CCCCCCC(=O)CCCC
23,104 to 106,O=[N+]([O-])c1ccc(N2CCCCC2)cc1
24,156,O=C1CCC(c2ccccc2)(C2CCN(Cc3ccccc3)CC2)C(=O)N1 (stereo not given)
25,121,COc1cc(C(=O)c2cccc(C)c2)c([N+](=O)[O-])cc1OC
26,71 to 74,O=S(=O)(Cl)c1ccc(-c2nsc(Cl)n2)s1

# The remaining lines, values behind:
row,Structure (SMILES),melting point [°C]
1,C[C@]12CC[C@H]3[C@@H](CCC4CC(=O)CC[C@@]43C)[C@@H]1CC[C@H]2OC=O (stereo not given in full),124
2,NC(=S)Nc1ccc(F)c(F)c1F,162 to 165
3,CNC(=O)CSP(=O)(OC)OC,-28
4,O=C1OC(c2ccccc2)=NC1=Cc1cc([N+](=O)[O-])ccc1O,231 to 232
5,O=C(O)C1CCCCN1 (stereo not given),277
6,Cc1ccc(-n2c(=O)cc(C)n2C)cc1,130 to 137
7,Nc1c(CN2CCCC2)c(=O)oc2ccccc12,197
8,COc1ccc(N(CCCC(=O)O)C(=O)c2ccc(Cl)cc2)cc1,116
9,CCC(=Cc1ccccc1)[N+](=O)[O-],90.5
10,CC(=O)CCc1oc2ccc(NC(C)=O)cc2c1-c1ccc(C)o1,131 to 132
11,C1=CC2C3C=CC(C3)C2C1 (stereo not given),33.6
12,c1ccc(N2CCNCC2)cc1,18.8
13,Nc1cc(Cl)cc(C(=O)O)c1Cl,200
14,CCCCCCCCCCCCCOCC1CO1 (stereo not given),1.6
15,O=Cc1ccc(OCc2c(F)cccc2Cl)cc1,74 to 78
16,Fc1ccc(-c2ccno2)cc1,55
17,c1cc2[nH]cnc2cn1,172
18,O=C(O)c1sc2sccc2c1Cl,252 to 258
19,CC1CC(C)CC(C)C1 (stereo not given),-49.7
20,O=Cc1cnc2ccccc2c1,68 to 71
21,CCCCCCCCCC(=O)OC1CCC2C3CCC4=CC(=O)CCC4C3CCC12C (stereo not given),118
22,COc1ccc(-c2ccc(S(=O)(=O)Cl)cc2)cc1,103 to 106
23,Cc1ccc(S(=O)(=O)OCC2Cc3ccccc3O2)cc1 (stereo not given),72 to 73
24,Cc1c(C(=O)CBr)sc2ccc(Cl)cc12,154 to 156
